Measured values as given in article PMC3492951 (Journal of the American Chemical Society, 2011).

What was measured:
PRMT1 = PRMT1 (Homo sapiens, UniProt Q99873); test: PRMT1 enzyme inhibition; assay type: biochemical; conditions: read-out: Ki PRMT1; competitive inhibitors
G9a = target: T1, G9a (Homo sapiens, UniProt Q96KQ7); test: G9a enzyme inhibition; assay type: biochemical
T1 sequence (Q96KQ7 1-1210): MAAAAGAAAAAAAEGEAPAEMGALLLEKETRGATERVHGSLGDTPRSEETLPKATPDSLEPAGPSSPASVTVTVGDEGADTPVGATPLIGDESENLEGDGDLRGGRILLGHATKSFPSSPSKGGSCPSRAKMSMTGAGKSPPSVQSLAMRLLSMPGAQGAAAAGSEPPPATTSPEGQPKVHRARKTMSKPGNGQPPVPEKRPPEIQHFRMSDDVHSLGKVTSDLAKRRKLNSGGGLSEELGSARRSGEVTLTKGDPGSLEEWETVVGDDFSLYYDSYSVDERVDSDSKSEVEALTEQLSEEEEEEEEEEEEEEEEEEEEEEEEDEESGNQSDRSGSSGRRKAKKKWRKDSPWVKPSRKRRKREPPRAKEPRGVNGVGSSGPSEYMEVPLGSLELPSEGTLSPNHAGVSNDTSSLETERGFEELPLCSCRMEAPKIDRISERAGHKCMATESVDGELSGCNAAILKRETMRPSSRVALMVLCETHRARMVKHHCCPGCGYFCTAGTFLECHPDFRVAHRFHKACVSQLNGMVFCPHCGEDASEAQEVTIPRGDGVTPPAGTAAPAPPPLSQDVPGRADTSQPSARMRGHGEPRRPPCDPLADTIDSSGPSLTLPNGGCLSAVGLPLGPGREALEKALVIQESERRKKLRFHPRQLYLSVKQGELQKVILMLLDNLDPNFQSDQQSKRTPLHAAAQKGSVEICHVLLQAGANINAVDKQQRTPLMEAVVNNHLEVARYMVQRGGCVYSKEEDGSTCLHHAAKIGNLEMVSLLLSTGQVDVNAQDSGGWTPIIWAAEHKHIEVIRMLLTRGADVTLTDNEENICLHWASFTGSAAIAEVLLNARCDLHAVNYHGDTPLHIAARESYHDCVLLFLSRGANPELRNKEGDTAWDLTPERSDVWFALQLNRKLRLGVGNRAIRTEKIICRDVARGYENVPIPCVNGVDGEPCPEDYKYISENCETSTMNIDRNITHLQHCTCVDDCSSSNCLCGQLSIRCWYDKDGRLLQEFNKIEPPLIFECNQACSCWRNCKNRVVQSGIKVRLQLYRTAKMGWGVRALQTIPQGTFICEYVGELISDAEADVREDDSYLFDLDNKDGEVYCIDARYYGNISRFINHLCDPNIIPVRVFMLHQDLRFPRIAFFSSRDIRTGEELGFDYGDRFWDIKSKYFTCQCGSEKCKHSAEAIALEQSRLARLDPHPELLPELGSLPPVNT

[1] = target: T2, CARM1 (also known as PRMT4) (Homo sapiens, UniProt Q86X55); test: CARM1 enzyme inhibition; assay type: biochemical; conditions: read-out: Ki CARM1; competitive inhibitors
T2 sequence (Q86X55 1-608): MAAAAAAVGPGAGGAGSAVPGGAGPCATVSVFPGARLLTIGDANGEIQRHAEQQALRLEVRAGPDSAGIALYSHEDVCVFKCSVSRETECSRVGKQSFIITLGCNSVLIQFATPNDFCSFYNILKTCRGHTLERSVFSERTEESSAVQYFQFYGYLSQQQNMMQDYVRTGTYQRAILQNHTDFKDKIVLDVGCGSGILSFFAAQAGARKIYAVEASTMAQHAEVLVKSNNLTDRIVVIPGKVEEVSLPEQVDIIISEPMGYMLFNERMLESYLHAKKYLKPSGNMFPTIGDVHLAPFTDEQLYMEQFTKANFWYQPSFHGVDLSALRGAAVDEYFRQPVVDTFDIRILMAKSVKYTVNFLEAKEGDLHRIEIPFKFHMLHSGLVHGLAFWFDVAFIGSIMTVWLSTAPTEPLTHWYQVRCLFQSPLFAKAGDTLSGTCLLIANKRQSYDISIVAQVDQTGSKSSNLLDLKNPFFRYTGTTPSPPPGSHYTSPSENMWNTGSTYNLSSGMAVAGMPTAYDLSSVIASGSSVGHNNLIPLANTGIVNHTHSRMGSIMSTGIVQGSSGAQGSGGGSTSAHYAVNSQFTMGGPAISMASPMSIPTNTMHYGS

SAH hydrolase = conditions: in cells / in vivo; cited from earlier work

Chain of PRMT1 (Q99873 whole entry, species assumed): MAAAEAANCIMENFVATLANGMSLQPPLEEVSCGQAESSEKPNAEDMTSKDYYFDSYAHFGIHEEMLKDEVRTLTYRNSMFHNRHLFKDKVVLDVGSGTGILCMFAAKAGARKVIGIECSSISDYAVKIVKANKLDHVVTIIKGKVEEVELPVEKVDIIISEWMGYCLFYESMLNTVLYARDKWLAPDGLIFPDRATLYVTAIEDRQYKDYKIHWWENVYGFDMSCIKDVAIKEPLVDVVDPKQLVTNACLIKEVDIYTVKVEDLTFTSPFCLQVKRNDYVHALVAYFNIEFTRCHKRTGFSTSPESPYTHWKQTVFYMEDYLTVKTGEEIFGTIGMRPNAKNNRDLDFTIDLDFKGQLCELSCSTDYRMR

For N[C@@H](CCSC[C@H]1O[C@@H](n2cnc3c(NCc4ccccc4)ncnc32)[C@H](O)[C@@H]1O)C(=O)O [Compound 2, N6-benzyl-SAH], the Ki (PRMT1) was 21.2 µM, the “activity on G9a” value (G9a) was “inactive” and the Ki (G9a; read-out: Ki G9a, competitive inhibitors) was > 100 µM. For the same compound, the Ki [1] was 18 µM.

For Nc1ncnc2c1ncn2[C@@H]1O[C@H](CSCC[C@H](N)C(=O)O)[C@@H](O)[C@H]1O [SAH, S-(5'-adenosyl)-L-homocysteine], the “degradation to adenosine and homocysteine by SAH hydrolase” value (SAH hydrolase) is given as “quickly degraded”.
